These results are taken from patent US6878713B2, “Generation triple-targeting, chiral, broad-spectrum antimicrobial 7-substituted piperidino-quinolone carboxylic acid derivatives, their preparation, compositions and use as medicaments” (Wockhardt Limited, priority 2001, dated 2005).

The test system of series [1] is Fluoroquinolone Sensitive Strains. Nature of the series: In-vitro antimicrobial test (MIC, two-fold serial agar dilution, NCCLS), Table 17. Type of series: cell-based. The conditions noted are these: for MICs: hydrochloride. As to the method:
(§1) The test method was in accordance with the standard NCCLS protocol (Methods for Dilution Antimicrobial Susceptibility Tests for Bacteria that grow Aerobicially, Approved Standards, M7-A5, Fifth Edition, January 2000).
(§2) The antibacterial activities (minimum inhibitory concentration: MIC, […]) were determined by using the two-fold serial agar dilution method recommended by NCCLS. The media used for preculture and main culture were Tryptic Soya broth (Difco) and Mueller Hinton medium (Difco), respectively. The Mueller Hinton agar was supplemented with 5% sheep blood for streptococci. Overnight cultures were diluted with buffered saline (pH 7.2) to the final cell density of 5×10^6-10^7 CFU/ml, and each bacterial suspension was applied with a replicator (Denley's multipoint inoculator, UK) onto a series of Mueller-Hinton agar plates containing antibacterial agents at various concentrations. Final inoculum was approximately 10^4 CFU/spot. The plates were incubated for 18 hrs at 37° C. The MIC was defined as the lowest concentration of an antibacterial agent that inhibits the development of visible microbial growth on agar.
(In agar dilution the substance is mixed into plates at graded concentrations.)

The subject of series [2] is Fluoroquinolone-Resistant Strains. Nature of the series: In-vitro antimicrobial test (MIC, two-fold serial agar dilution, NCCLS), Table 18. The class given is cell-based. Conditions: for MICs: hydrochloride. As to the method:
as §1, §2

The subject of series [3] is V79 (Chinese Hamster Lung). The experiment in a line: Cytotoxicity test (Alamar blue), V79 cells, Table 23. The class given is cell-based. The conditions noted are these: 3 hrs drug exposure, further 96 hrs incubation. As to the method:
Compounds were evaluated for their cytotoxic potential against two […] viz. […] Cells were grown for 3-4days in a culture flask using D-MEM (Dulbecco's Modified Eagle. […] Freshly grown cells were distributed in microtiter plates at a cell density of 10^5-10^6 cells/well and allowed to […] form monolayer by incubating the microtiter plate at […] for 24 hrs. […] Following 3 hrs. of drug exposure, cell were washed with D-MEM and incubated further for 96 hrs. Cytotoxic effects of drugs were monitored through daily microscopic observation and by ascertaining the metabolic status through redox indicator Alamar blue. Healthy actively metabolising cells bring about colour change of Alamar blue from blue to pink within an overnight incubation. Cytotoxic drugs inhibit this reaction resulting into blue coloured well. Minimum drug concentration inhibiting Alamar blue color change i.e. resulting into blue coloured wells for a given drug is considered cytotoxic concentration.
For orientation: Resazurin is reduced to fluorescent resorufin, in cell work by metabolically active cells.

For series [4], the system named is J 744 (mouse macrophage). Nature of the series: Cytotoxicity test (Alamar blue), J 744 cells, Table 23. Conditions: 3 hrs drug exposure, further 96 hrs incubation. Type of series: cell-based. As to the method: Compounds were evaluated for their cytotoxic potential against two celllines viz. […] Cytotoxic drugs inhibit this reaction resulting into blue coloured well. Minimum drug concentration inhibiting Alamar blue color change i.e. resulting into blue coloured wells for a given drug is considered cytotoxic concentration.

Setting [5] is: Escherichia coli, ATCC25922, E. coli ATCC 25922.
Setting [6] is: Staphylococcus aureus, ATCC 25923 / MSSA, MSSA ATCC 25923.
Where [7] appears, read: Streptococcus pneumoniae, ATCC49619, S. pneumoniae ATCC 49619.
[8] abbreviates: S. sanguis ATCC 10556 (Viridans Streptococci group).
Where [9] appears, read: Staphylococcus aureus, MRSA, MRSA 032.
Where [10] appears, read: Streptococcus mitis, Cipro^R S. mitis 938.
Setting [11] is: Streptococcus pneumoniae, FQ^R S. pneumoniae 718.
Where [12] appears, read: Enterococcus faecalis, ATCC29212, E. faecalis ATCC 29212.
[13] abbreviates: Pseudomonas aeruginosa, P. aeruginosa 27853.

Values after ≈ are worked out from the molar mass of the structure shown.

A word on the MIC: it is the least concentration at which growth counts as inhibited. Low readings indicate inhibition by little substance, high ones a need for much substance. Usually melting point stands for the temperature of the solid-liquid transition.

`Cc1c(N2CCC(N(C)C)C(C)C2)c(F)cc2c(=O)c(C(=O)O)cn(C3CC3)c12` (stereo not shown) [Compound 114, 1-Cyclopropyl-6-fluoro-1,4-dihydro-8-methyl-7-(4-dimethylamino-3-methyl-1-piperidinyl)-4-oxo-quinoline-3-carboxylic acid]: the melting point is 221 °C. For the same compound, in series [1] (setting [5]), the MIC was 0.05 µg/mL (≈ 0.125 µM). This compound returned an MIC in series [1] (setting [6]) of 0.05 µg/mL (≈ 0.125 µM). The MIC in series [1] (setting [7]) stood at 0.05 µg/mL (≈ 0.125 µM).
In turn, `COc1c(N2CCC(N)C(C)C2)c(F)cc2c(=O)c(C(=O)O)cn(C3CC3)c12` (stereo not shown) [Compound 1, 1-Cyclopropyl-6-fluoro-1,4-dihydro-8-methoxy-7-(4-amino-3-methyl-1-piperidinyl)-4-oxo-quinoline-3-carboxylic acid] yielded a melting point of 238 to 240 °C. In addition, the MIC in series [1] (setting [5]) was found to be 0.05 µg/mL (≈ 0.128 µM). Moreover, in series [1] (setting [6]), the MIC was 0.05 µg/mL (≈ 0.128 µM). For the same compound, in series [1] (setting [7]), the minimal inhibitory concentration (MIC) turned out to be 0.2 µg/mL (≈ 0.514 µM).
On to `Cc1c(N2CCC(N)C(C)(C)C2)c(F)cc2c(=O)c(C(=O)O)cn(C3CC3)c12.Cl` (single isomer, unassigned; (+)) [Compound 106, (+)-1-Cyclopropyl-6-fluoro-1,4-dihydro-8-methyl-7-(4-amino-3,3-dimethyl-1-piperidinyl)-4-oxo-quinoline-3-carboxylic acid hydrochloride], for which the MICs in series [2] (Cipro^R S. mitis 938) amounted to 6.25 µg/mL; in series [2] (Cipro^R S. sanguis 941), 6.25 µg/mL; in series [2] (FQ^R S. pneumoniae 718) it was 1.56 µg/mL; in series [2] (MRSA 032) it was 1.56 µg/mL; in series [1] (E. faecalis ATCC 29212), 0.2 µg/mL; in series [1] (P. aeruginosa 27853) it was 6.25 µg/mL. The same compound yielded an MICs in series [1] (S. pneumoniae ATCC 49619) of 0.1 µg/mL. Further, the minimum inhibitory concentration (MIC) in series [1] (setting [5]) was found to be 0.05 µg/mL; in series [1] (setting [8]) it was 0.1 µg/mL; in series [1] (setting [6]) it was 0.025 µg/mL. The “Cytotoxic concentration, V 79 CHL” value in series [3] (hydrochloride) was greater than 1000 µg/mL. In addition, the “Cytotoxic concentration, J 744 Macrophage” value in series [4] (hydrochloride) is greater than 1000 µg/mL.
In turn, `Cc1c(N2CC[C@@H](N)[C@H](C)C2)c(F)cc2c(=O)c(C(=O)O)cn(C3CC3)c12.Cl` (single isomer, unassigned) [Compound 98, trans-1-Cyclopropyl-6-fluoro-1,4-dihydro-8-methyl-7-(4-amino-3-methyl-1-piperidinyl)-4-oxo-quinoline-3-carboxylic acid hydrochloride] gave a melting point of 262 to 265 °C. For the same compound, the MIC in series [2] (Cipro^R S. sanguis 941) worked out at 3.12 µg/mL. In series [2] (setting [9]), this compound came in with an MIC of 1.56 µg/mL. The MIC in series [2] (setting [10]) was 1.56 µg/mL. In series [2] (setting [11]), the minimal inhibitory concentration (MIC) was 1.56 µg/mL. Also, in series [1] (setting [12]), the MIC turned out to be 0.1 µg/mL. The compound also yielded an MIC in series [1] (setting [5]) of 0.006 µg/mL. The compound also came in with a minimal inhibitory concentration (MIC) in series [1] (setting [13]) of 1.56 µg/mL. In series [1] (setting [8]), the MIC was found to be 0.025 µg/mL. In series [1] (setting [6]), the MIC came to 0.025 µg/mL. In series [1] (setting [7]), this compound had a minimal inhibitory concentration (MIC) of 0.05 µg/mL. Moreover, the “Cytotoxic concentration, V 79 CHL” value in series [3] worked out at 250 µg/mL. Also, the “Cytotoxic concentration, J 744 Macrophage” value in series [4] stood at 1000 µg/mL.
For the compound `Cc1c(N2CC[C@@H](N)[C@H](C)C2)c(F)cc2c(=O)c(C(=O)O)cn(C3CC3)c12` (single isomer, unassigned) [Compound 97, trans-1-Cyclopropyl-6-fluoro-1,4-dihydro-8-methyl-7-(4-amino-3-methyl-1-piperidinyl)-4-oxo-quinoline-3-carboxylic acid], the melting point fell in the range of 223 to 225 °C. In series [2] (Cipro^R S. sanguis 941), the MIC was found to be 3.12 µg/mL (≈ 8.36 µM). Besides, the MIC in series [2] (setting [9]) was 0.8 µg/mL (≈ 2.14 µM). Besides, in series [2] (setting [10]), the minimum inhibitory concentration (MIC) was determined as 3.12 µg/mL (≈ 8.36 µM). The compound further returned an MIC in series [2] (setting [11]) of 3.12 µg/mL (≈ 8.36 µM). In series [1] (setting [12]), the MIC stood at 0.2 µg/mL (≈ 0.536 µM). Also, in series [1] (setting [5]), the MIC turned out to be 0.4 µg/mL (≈ 1.07 µM). In addition, in series [1] (setting [13]), the MIC is 12.5 µg/mL (≈ 33.5 µM). In series [1] (setting [8]), the MIC is 0.2 µg/mL (≈ 0.536 µM). This compound gave a minimum inhibitory concentration (MIC) in series [1] (setting [6]) of 0.012 µg/mL (≈ 0.0321 µM). Besides, the MIC in series [1] (setting [7]) was determined as 0.1 µg/mL (≈ 0.268 µM). Moreover, in series [3], the “Cytotoxic concentration, V 79 CHL” value was greater than 1000 µg/mL. For the same compound, in series [4], the “Cytotoxic concentration, J 744 Macrophage” value was greater than 1000 µg/mL.
The compound `COc1c(N2CCC(N(C)C)C(C)C2)c(F)cc2c(=O)c(C(=O)O)cn(C3CC3)c12` (stereo not shown) [Compound 13, 1-Cyclopropyl-6-fluoro-1,4-dihydro-8-methoxy-7-(4-dimethylamino-3-methyl-1-piperidinyl)-4-oxo-quinoline-3-carboxylic acid] returned a melting point of 180 to 182 °C.
The same measure, in the same setting: next, `CCNC1CCN(c2c(F)cc3c(=O)c(C(=O)O)cn(C4CC4)c3c2OC)CC1C` (stereo not shown) [Compound 10, 1-Cyclopropyl-6-fluoro-1,4-dihydro-8-methoxy-7-(4-ethylamino-3-methyl-1-piperidinyl)-4-oxo-quinoline-3-carboxylic acid]: 160 to 162 °C; `CCC1(C)CN(c2c(F)c(N)c3c(=O)c(C(=O)O)cn(C4CC4)c3c2OC)CCC1N` (stereo not shown) [Compound 77, 5-Amino-1-cyclopropyl-6-fluoro-1,4-dihydro-8-methoxy-7-(4-amino-3-ethyl-3-methyl-1-piperidinyl)-4-oxo-quinoline-3-carboxylic acid]: 210 °C (dec.).
For `COc1c(N2CC(C)C(N)C(C)C2)c(F)c(N)c2c(=O)c(C(=O)O)cn(C3CC3)c12` (stereo not shown) [Example 53, 5-Amino-1-cyclopropyl-6-fluoro-1,4-dihydro-8-methoxy-7-(4-amino-3,5-dimethyl-1-piperidinyl)-4-oxo-quinoline-3-carboxylic acid], the melting point is 248 to 250 °C (dec.).
The compound `Cc1c(N2CCC(N)C(C)(C)C2)c(F)cc2c(=O)c(C(=O)O)cn(C3CC3)c12` (single isomer, unassigned; (-)) [Compound 109, (−)-1-Cyclopropyl-6-fluoro-1,4-dihydro-8-methyl-7-(4-amino-3,3-dimethyl-1-piperidinyl)-4-oxo-quinoline-3-carboxylic acid] gave a melting point of 195 to 198 °C.
On to `CCOC(=O)NC1CCN(c2c(F)cc3c(=O)c(C(=O)O)cn(C4CC4)c3c2OC)CC1(C)C` (stereo not shown) [Compound 30, 1-Cyclopropyl-6-fluoro-1,4-dihydro-8-methoxy-7-(4-carbethoxyamino-3,3-dimethyl-1-piperidinyl)-4-oxo-quinoline-3-carboxylic acid], for which the melting point stood at 222 °C. The same compound showed a minimum inhibitory concentration (MIC) in series [1] (setting [5]) of 0.05 µg/mL (≈ 0.105 µM). The same compound displayed an MIC in series [1] (setting [6]) of 0.05 µg/mL (≈ 0.105 µM). For the same compound, in series [1] (setting [7]), the MIC was determined as 0.1 µg/mL (≈ 0.21 µM).
The compound `CNC1C(C)CN(c2c(F)cc3c(=O)c(C(=O)O)cn(C4CC4)c3c2OC)CC1C` (stereo not shown) [Compound 45, 1-Cyclopropyl-6-fluoro-1,4-dihydro-8-methoxy-7-(4-methylamino-3,5-dimethyl-1-piperidinyl)-4-oxo-quinoline-3-carboxylic acid] gave a melting point of 268 to 272 °C.
On to `CCNC1CCN(c2c(F)cc3c(=O)c(C(=O)O)cn(C4CC4)c3c2C)CC1(C)C` (stereo not shown) [Compound 115, 1-Cyclopropyl-6-fluoro-1,4-dihydro-8-methyl-7-(4-ethylamino-3,3-dimethyl-1-piperidinyl)-4-oxo-quinoline-3-carboxylic acid], for which the melting point is 201 to 203 °C.
Compound `COc1c(N2CCC(NC3CC3)C(C)(C)C2)c(F)cc2c(=O)c(C(=O)O)cn(C3CC3)c12` (stereo not shown) [Compound 37, 1-Cyclopropyl-6-fluoro-1,4-dihydro-8-methoxy-7-(4-cyclopropylamino-3,3-dimethyl-1-piperidinyl)-4-oxo-quinoline-3-carboxylic acid] gave a melting point of 190 to 192 °C.
`CCC1(C)CN(c2c(F)cc3c(=O)c(C(=O)O)cn(C4CC4)c3c2OC)CCC1NC1CC1` (stereo not shown) [Compound 41, 1-Cyclopropyl-6-fluoro-1,4-dihydro-8-methoxy-7-(4-cyclopropylamino-3-ethyl-3-methyl-1-piperidinyl)-4-oxo-quinoline-3-carboxylic acid] came in with a melting point of 210 to 212 °C.
`CCNC1CCN(c2c(F)cc3c(=O)c(C(=O)O)cn(C4CC4)c3c2OC)CC1(C)C` (stereo not shown) [Compound 36, 1-Cyclopropyl-6-fluoro-1,4-dihydro-8-methoxy-7-(4-ethylamino-3,3-dimethyl-1-piperidinyl)-4-oxo-quinoline-3-carboxylic acid] registered a melting point of 230 to 232 °C.
For the compound `CCc1c(N2CCC(N)CC2)c(F)cc2c(=O)c(C(=O)O)cn(C3CC3)c12` [Compound 117, 1-Cyclopropyl-6-fluoro-8-ethyl-7-(4-amino-1-piperidinyl)-1,4-dihydro-4-oxo-quinoline-3-carboxylic acid], the melting point lay within 248 to 249 °C.
